According to US7282507B2, “Indole derivatives as selective androgen receptor modulators (SARMS)” (Janssen Pharmaceutica N.V., priority 2004, dated 2007):
Where two headings read alike, the source gives them in different places.

Key:
[1] = target: T1, androgen receptor LBD (Panvera) (Rattus norvegicus, UniProt P15207); experiment: Androgen Receptor Filtration Binding Assay (PANVERA)
T1 construct: 5 pmol androgen receptor LBD (Panvera); purchased Panvera
T1 sequence (P15207 651-882 limits assumed): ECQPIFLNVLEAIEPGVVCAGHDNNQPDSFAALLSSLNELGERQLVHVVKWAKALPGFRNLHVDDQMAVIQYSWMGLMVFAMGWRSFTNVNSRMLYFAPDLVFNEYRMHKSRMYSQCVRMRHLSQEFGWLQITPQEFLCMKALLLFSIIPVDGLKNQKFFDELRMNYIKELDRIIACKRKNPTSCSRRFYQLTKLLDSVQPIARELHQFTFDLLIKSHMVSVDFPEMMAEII
Description: (§1) The assay was run on a 96 well plate with each well filled with a total reaction volume 150 μL, of a solution containing 5 pmol androgen receptor LBD (Panvera) or 30 μL of freshly prepared rat cytosol, 0.5 nM [^3H] […] (TED buffer contains 10 mM Tris.HCl pH 7.4, 1 mM sodium molybdate, 1.5 mM EDTA, 1 mM DTT and 10% (v/v) glycerol.)
(§2) On day one, the solution containing receptor, tracer and TED buffer was distributed into a 96 well plate. Diluted test compound or control vehicle was then added to individual wells and the plate incubated at 4° C. overnight.
(§3) On day two, to each well was then added 20 μL human γ-globulin (ICN 823102), prepared at 25 mg/ml in TE pH 8.0, and 55 μL 40% polyethylene glycol 8000 (J T Baker U222-08), prepared in TE pH 8.0. The plate was incubated at 4° C. for 60 minutes. During incubation, the harvester was rinsed with 10% PEG 8000, prepared in TE pH 8.0, and a GF/C Unifilter-96 was pre-wet with 10% PEG. The binding reaction was filtered, the retentate was washed three times with 10% PEG and dried under vacuum for a couple of minutes, then dried at 50° C. for 5 min and the plate was bottom sealed. Next, 25 μL of Microscint-20 (Packard) was added to the filter wells and the plate was top sealed. The plate wells were then counted on a TopCount (Packard).
Counts per well were measured and IC50s determined by linear regression.

[2] = target: T2, androgen receptor (rat ventral prostate cytosol) (Rattus norvegicus, UniProt P15207); experiment: Androgen Receptor Binding Using Rat Ventral Prostate Cytosol; details: for inhibition at 1 µM: read-out: % Inhibition, Androgen Receptor Binding (Rat Cytosol)
T2 construct: from tissue; host or cells: ventral prostate cytosol of castrated male Sprague Dawley or Wistar rats
T2 sequence (P15207 1-902): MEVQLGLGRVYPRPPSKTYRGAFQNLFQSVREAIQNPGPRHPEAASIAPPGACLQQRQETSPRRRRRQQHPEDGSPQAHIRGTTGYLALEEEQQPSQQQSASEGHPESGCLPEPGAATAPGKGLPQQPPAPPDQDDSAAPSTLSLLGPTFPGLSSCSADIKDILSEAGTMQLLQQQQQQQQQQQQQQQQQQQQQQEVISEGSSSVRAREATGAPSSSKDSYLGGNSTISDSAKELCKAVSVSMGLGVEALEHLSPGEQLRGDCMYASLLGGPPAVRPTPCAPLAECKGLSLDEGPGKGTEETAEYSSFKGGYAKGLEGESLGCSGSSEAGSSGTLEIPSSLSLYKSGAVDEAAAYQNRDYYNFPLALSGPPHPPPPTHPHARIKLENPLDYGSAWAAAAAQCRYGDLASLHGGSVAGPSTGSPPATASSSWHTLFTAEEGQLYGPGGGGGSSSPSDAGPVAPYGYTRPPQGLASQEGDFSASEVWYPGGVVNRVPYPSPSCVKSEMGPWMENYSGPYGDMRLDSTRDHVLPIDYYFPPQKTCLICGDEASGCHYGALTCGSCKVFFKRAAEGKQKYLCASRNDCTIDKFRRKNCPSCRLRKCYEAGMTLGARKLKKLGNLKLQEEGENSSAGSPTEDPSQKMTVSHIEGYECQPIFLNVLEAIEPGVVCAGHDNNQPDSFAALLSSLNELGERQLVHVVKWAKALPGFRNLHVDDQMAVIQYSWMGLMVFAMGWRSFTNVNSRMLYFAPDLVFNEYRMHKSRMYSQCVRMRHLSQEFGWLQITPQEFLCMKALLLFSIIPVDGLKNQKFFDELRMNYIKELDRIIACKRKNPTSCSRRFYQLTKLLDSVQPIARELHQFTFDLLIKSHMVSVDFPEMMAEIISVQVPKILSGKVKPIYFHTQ
Description: as §1, §2, §3
Rat Prostate Cytosol Preparation:
Male Sprague Dawley or Wistar rats (Charles River, 200-300 g) were used for each preparation. The day before preparing the cytosol, the rats were castrated using standard surgical procedures.
The rats were euthanized by carbon dioxide asphyxiation. The rat prostates were quickly removed and placed on ice in pre-chilled, pre-weighed 50 mL plastic tubes. No more than five prostates were placed into one tube. The tubes were then weighed and the prostate tissue wet weights calculated.
To the chilled prostate tissue was then added […] of chilled homogenization buffer. The homogenization buffer was freshly prepared by mixing 10 mM Tris.HCl, pH 7.4, 1 mM sodium molybdate, 1.5 mM EDTA, 1 mM dithiothreitol, 10% (v/v) glycerol and 1% protease inhibitor cocktail (Sigma P 8340).
The prostate tissue was homogenized in a cold room using a pre-chilled Polytron PT3000 homogenizer (Brinkmann). Homogenization was performed at a speed setting of 20, three times for 10 sec bursts. The tubes containing the prostate tissue was kept on ice while homogenizing. The homogenate was allowed to rest on ice for 20 sec between bursts.
The homogenate was then placed into pre-chilled 3 mL polycarbonate ultracentrifuge tubes and centrifuged in the TLA-100 rotor of a TL-100 ultracentrifuge for 12 min at 100,000 rpm at 4° C. The resulting supernatant was stored in 1 mL aliquots at −80° C. until needed.
Binding to the androgen receptor was determined according to the protocol described in Example 86 using the above prepared rat cytosol.
% Inhibition was determined by testing dilutions of the test compound (usually duplicates of 10 μM) in the binding assay. Counts per well were measured and percents of inhibition determined. […] Counts per well were measured and IC50s determined by linear regression.

[3] = tested on: testosterone-enhanced ventral prostate and seminal vesicle weights; experiment: Ventral Prostate and Seminal Vesicle Weight in vivo Assay; set-up: species or system rat; details: immature castrated male Sprague Dawley rats, once daily for five days, usually orally 40 mg/kg, with testosterone propionate 2 mg/kg s.c. Also: key: 'active' if the non weight adjusted prostate weight was ≦40 mg or the % Inhibition prostate weight, body weight adjusted was ≧40% @ 2 mg/day dosage; ID50's, if determined, of ≦15 mg/day also indicated an 'active' compound; listed herein as 'inactive' as they did not meet the specified criteria defined above.
Method in brief: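 Wet weights of ventral prostate and seminal vesicles were taken on day six. Castrated immature male Sprague Dawley rats had received five daily doses of testosterone propionate (2 mg/kg s.c.) together with test compound, typically 40 mg/kg orally. Activity was scored from absolute prostate weight or body-weight-adjusted % inhibition.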

[4] = target: T3, androgen receptor (AdEasy+rAR, COS-7 cells) (Rattus norvegicus, UniProt P15207); experiment: COS-7 Whole-Cell Androgen Receptor Binding Assay, Adenovirus Transduction; details: for inhibition at 3 µM / % Inhibition, COS Binding: concentration of 3000 nM; for IC50: read-out: IC50 (nM), COS Binding; for % Inhibition, COS Binding: 3 µM
T3 construct: expressed in transfected cells; host or cells: COS-7 cells transduced with adenovirus AdEasy+rAR
T3 sequence (P15207 1-902): T2 sequence (P15207 1-902)
Description: COS-7 cells were plated in 96-well plates at 20,000 cells per well, in a solution of DMEM/F12 (GIBCO) containing 10% (v/v) charcoal-treated fetal bovine serum (Hyclone) and lacking phenol red. The cells were then incubated overnight at 37° C. in 5% (v/v) humidified CO2.
Test compound solutions were prepared by diluting the test compound in 100% (v/v) DMSO, if necessary.
Next, 1 mL of DMEM/F12 lacking phenol red was pipetted into each of the wells of a 2-mL 96-well assay block. […] The wells were carefully mixed by pipette.
In a 15 mL or 50 mL sterile centrifuge tube, a dilution in DMEM/F12 of the adenovirus AdEasy+rAR at a moi of 1:50 per well was prepared.
The medium was removed from the 96-well plates by inversion and the plates dried very briefly, inverted, on a sterile towel. As soon as possible after medium removal, 40 μL of the diluted test compound was added to each well, in duplicate. […] The plates were then incubated for 48 hours at 37° C. in 5% (v/v) humidified CO2.
The medium was removed from the above incubated plates by inversion and dried. Each well was then washed with 0.35 mL of 1× PBS. The PBS was then removed from the plates by inversion and the plates dried.
To each well was then added 50 μL of 0.5% (v/v) Triton X-100 (Sigma) in 1× PBS and the plates placed on a rotary shaker for 5 min. The contents of each well were then transferred to an OptiPlate-96 (Packard) scintillation plate. To each well was then added 0.2 mL of Microscint-20 (Packard) and the wells counted on a TopCount (Packard).
Percent inhibition was determined by testing dilutions of the test compound (usually duplicates of 10 μM) in the binding assay. Counts per well were measured and percents of inhibition determined. […] Counts per well were measured and IC50s determined by linear regression.

[5] = target: T4, androgen receptor (AdEasy+rAR, L929 cells) (Rattus norvegicus, UniProt P15207); experiment: L929 Androgen Receptor Functional Assay, Adenovirus Transduction; assay type: cell-based; details: for % Activity, L929 androgen receptor functional assay: agonist testing, 3000 nM
T4 construct: expressed in transfected cells; host or cells: L929 cells transduced with adenovirus AdEasy+rAR
T4 sequence (P15207 1-902): T2 sequence (P15207 1-902)
Method in brief: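 Luminescent reporter readout after 48 h at 37 °C: rat AR delivered by adenovirus (AdEasy+rAR, moi 1:500) into L929 cells grown without phenol red in charcoal-treated serum. Antagonist wells also received R1881 (2.5× dilution at 2.5 nM).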

[6] = read-out: IC50 (nM), Androgen Receptor Binding (Panvera)
[7] = [3H] R1881 tracer 0.5 nM, read-out: IC50 (nM), Androgen Receptor Binding (Panvera)

SMILES | IC50 [1, 7] [nM] | inhibition at 1 µM ([2]; Concentration 1000 nM) [%] | active / inactive: inhibition of testosterone-enhanced prostate weight [3] | other results
CC(O)(CSc1ccc(Cl)cc1)c1cc2cc(C#N)c(C(F)(F)F)cc2[nH]1 (centres unmarked) [Compound 96] |  |  |  | IC50 ([1]; IC50 (nM), Androgen Receptor Binding (Panvera)): 820 nM; IC50 [1, 6]: 1710 nM; % Inhibition, Androgen Receptor Binding (Rat Cytosol) ([2]; 1 µM): 59%; inhibition at 1 µM [2]: 74%
CC(C)(C)c1ccc(C(=O)OCC(C)(O)c2cc3cc([N+](=O)[O-])c(C(F)(F)F)cc3[nH]2)cc1 (centres unmarked) [Compound 80] | 6400 | -24.9 |  | 
CC(O)(COC(=O)c1cccc(Cl)c1)c1cc2cc([N+](=O)[O-])c(C(F)(F)F)cc2[nH]1 (centres unmarked) [Compound 58] |  | 79.5 |  | IC50 [1, 6]: 455 nM
CC(O)(CCl)c1cc2nc(C(F)(F)F)ccc2n1S(C)(=O)=O (centres unmarked) [Compound 4] | 7600 | 10.8 |  | 
CC(O)(CSc1ccccc1Cl)c1cc2cc(Cl)c(C(F)(F)F)cc2[nH]1 (centres unmarked) [Compound 84] | 180 | 86 |  | IC50 ([2]; read-out: IC50 (nM), Androgen Receptor Binding (Rat Cytosol)): 240 nM
CC(O)(COC(=O)c1ccc(F)cc1)c1cc2cc(C#N)c(C(F)(F)F)cc2[nH]1 (centres unmarked) [Compound 77] | 1110 | -9.25 |  | 
CN(C)c1ccc(C(=O)OCC(C)(O)c2cc3cc([N+](=O)[O-])c(C(F)(F)F)cc3[nH]2)cc1 (centres unmarked) [Compound 67] | 3000 | 25.5 |  | 
CC(O)(SC1CCCCC1)c1cc2cc(C#N)c(C(F)(F)F)cc2[nH]1 (racemic) [Compound 257] | 5150 |  |  | 
CC(O)(CSc1ccc([N+](=O)[O-])cc1)c1cc2cc([N+](=O)[O-])c(C(F)(F)F)cc2[nH]1 (centres unmarked) [Compound 103] | 1650 |  |  | 
CC(O)(SC1CCCCC1)c1cc2cc([N+](=O)[O-])c(C(F)(F)F)cc2[nH]1 (racemic) [Compound 256] | 2650 |  |  | 
CC(O)(C[S+]([O-])c1ccc(F)cc1)c1cc2cc(Cl)c(C(F)(F)F)cc2[nH]1 (centres unmarked) [Compound 113] | 5100 |  | inactive | 
CCSCC(C)(O)c1cc2cc(Cl)c(C(F)(F)F)cc2[nH]1 (centres unmarked) [Compound 152] |  |  | inactive | inhibition at 3 µM ([2]; Concentration 3000 nM): 97%; inhibition at 3 µM [4]: 39%; IC50 [4]: 108 nM
CC(O)(CSc1ccc(Cl)cc1)c1cc2ccccc2[nH]1 (centres unmarked) [Compound 89] | > 9600 |  |  | 
CCC(O)(CSCC(F)(F)F)c1cc2cc(Cl)c(C(F)(F)F)cc2[nH]1 (centres unmarked) [Compound 192] |  |  | active | inhibition at 3 µM [4]: 86%; IC50 [4]: 82 nM; inhibition at 3 µM ([5]; L929, antagonist testing with R1881, 3000 nM): 89%; % Activity, L929 androgen receptor functional assay [5]: 8%
CC(O)(CSCC(F)(F)F)c1cc2cc([N+](=O)[O-])c(C(F)(F)F)cc2[nH]1 (single isomer, unassigned) [Compound 202] |  |  | active | % Inhibition, COS Binding [4]: 50%; % Activity, L929 androgen receptor functional assay ([5]; 3 µM): 1%
CC(O)(CSCC(F)(F)F)c1cc2cc([N+](=O)[O-])c(C(F)(F)F)cc2[nH]1 (centres unmarked) [Compound 201] |  |  | inactive | % Inhibition, COS Binding [4]: 86%; IC50 [4]: 340 nM; % Activity, L929 androgen receptor functional assay ([5]; 3 µM): 2%; % Inhibition, L929 androgen receptor functional assay ([5]; antagonist testing with R1881, 3000 nM, 3 µM): 83%
CCSCC(C)(O)c1cc2cc(F)c(C(F)(F)F)cc2[nH]1 (racemic) [Compound 206] |  |  | active | % Inhibition, COS Binding [4]: −40%; % Activity, L929 androgen receptor functional assay ([5]; 3 µM): 5%
CC(O)(Sc1ccc(Cl)cc1)c1cc2cc([N+](=O)[O-])c(C(F)(F)F)cc2[nH]1 (racemic) [Compound 259] | 915 |  |  | 
